Measurements published in patent US10286000B2, “Retinoid X receptor-gamma agonists and retinoid X receptor-alpha antagonists for treatment of cancer” (St. Jude Children's Research Hospital, Inc., priority 2013, dated 2019).

Tests used:
[1] = test system: soluble ULBP2 from HCT116 cells; experiment: ULBP2 ELISA (shedding to culture supernatant); type: cell-based, human; settings: 56 μM, 3 days
Method: ULBP2 shed from cell surface to the culture supernatant was detected by ELISA method as described before (Waldhauer & Steinle. 2006. Cancer research 66:2520-2526). 100 μl (triplicate) of cultured supernatant was added into a 96-well plate pre-coated with 1 μg/ml of mouse anti-ULBP2 (BUMO1) and incubated at 4° C. overnight. The plate was washed and then incubated with mouse anti-ULBP2 (IgG2a, 100 μl/well at 1 μg/ml) for 1 h followed by incubation with HRP-conjugated goat anti-mouse IgG2a for 1 h at room temperature. TMB substrate was added and the plate was read using Victor^2 plate reader (Perkin Elmer).

[2] = test system: spontaneous intestinal polyps; experiment: C57BL/6J-ApcMin/J mouse model; type: in vivo, C57BL/6J-Apc^Min/J mice
Method: The number of spontaneous intestinal polyps (arrows) was counted and compared between the two groups of mice at the end of the 3 month period. (B) The difference in adenoma growth (arrows) between the PBS- and SPIR-treated mouse groups was confirmed in intestine tissue sections. […] Total RNA were collected for cDNA preparation and the expressions of the mouse NKG2D ligands Raet1 family were analyzed by qRT-PCR. […] The number of spontaneous intestinal polyps (arrows) was counted and compared between the two groups of mice. * P≤0.05, ** P≤0.01, *** P<0.005.
By examining the intestines collected from different age groups of C57BL/6J-APC^Min/J mice (n=2-3 per group), it was discovered that none of the 8-week-old mice developed intestinal polyps. The mice started to develop polyps when they were 10 to 12-week-old and there were 15-25 intestinal adenomas established in the intestinal tracts of all the 4-month-old mice. Most of the mice died at 5 to 6 months with 25-30 adenomas in their intestines. […] The number of intestinal polyps was counted, and the intestine was fixed in 10% neutral buffered formalin, paraffin embedded, sectioned, and stained with hematoxylin and eosin. Intestine sections at 100-μm intervals were collected for the observation of neoplasia without knowledge of treatment assignment.

[3] = test system: RXR-gamma; experiment: RXR-gamma reporter assay; type: cell-based, human; settings: HCT116 cells
Method: The Cignal RXR reporter assay system containing an RXR-gamma-responsive luciferase construct, which encodes the firefly luciferase reporter gene under the control of a minimal CMV promoter and tandem repeats of the RXR-gamma transcriptional response element, was purchased from Qiagen. The experiment was performed in HCT116 cells according to the manufacturer's instructions.

[4] = test system: HCT116 cells; experiment: cell-cycle analysis (propidium iodide, EdU); type: cell-based, human; settings: HCT116, 24 h
[5] = test system: TIMP2 and TIMP3; experiment: TIMP2 and TIMP3 ELISA; type: cell-based, human; settings: HCT116, 56 μM 3 days
[6] = test system: HCT116, HT29, and CAL27 cells; experiment: wound-healing assay; type: cell-based, human; settings: HCT116, HT29, CAL27
Method: (§1) The number of cells that invaded the ECM was determined after 24 h. Data are expressed as percentage change in tumor invasion relative to that of DMSO-treated cells (n=3). (D) Wound healing by DMSO- and SPIR-treated HCT116, HT29, and CAL27 cells was compared. Data are calculated as the percentage change in distance of migration relative to that of DMSO-treated cells (n=3). […] Tumor xenografts and lung metastases were detected by bioluminescence imaging on day 25. Data are shown as the average total flux (photons/second)±standard deviation (n=8). (F) The lung metastases (arrows) were confirmed by examining lung tissue sections. * P≤0.05, ** P<0.01, *** P<0.005, **** P<0.0001.
Confluent cell layers of CAL27 and HT29 cells with a 500 μm±50 μm gap were formed by using Ibidi culture inserts (RPI Corp.). Gap distances were measured at various times using a Nikon Eclipse Ti inverted microscope and NIS-Elements software (Nikon).

[7] = test system: HT29 xenografts, lung metastasis; experiment: lung metastasis model using HT29 cells; type: in vivo, NSG mice; settings: i.p. twice a week for 3 weeks
Method: as §1
Luciferase-expressing HCT116 and HT29 cells were generated by lentiviral transduction of the cells with a CMV promoter-driven luciferase expression construct engineered from the pLL3.7 vector. […] Bioluminescence imaging was performed in a Xenogen imaging system to monitor tumor growth and the data were analyzed using Living Image software (Caliper LifeSciences). For the lung metastasis model using HT29 cells, lungs were harvested for bioluminescence imaging and then fixed in 10% neutral buffered formalin, paraffin embedded, sectioned, and stained with hematoxylin and eosin. A total of six lung sections at 100-μm intervals were collected for the observation of pulmonary nodules. […]

[8] = test system: HCT116 cells, hepatic metastasis; experiment: hepatic metastasis model (intrasplenic HCT116); type: in vivo, NSG mice; settings: i.p. every other day
Method: (B) HCT116 cells were transfected with control KD or RXR-gamma-KD1 siRNA on day 0. […] The mRNA expression of TIMP2 and TIMP3 was analyzed by qRT-PCR on day 5. Data are shown as relative mRNA fold change of SPIR-treated RXR-gamma-KD1 cells to control KD cells (n=3). (C) HCT116 cells were transfected with control KD or RXR-gamma-KD1 siRNA on day 0. […] Data are calculated as the percentage change in distance of migration relative to that of DMSO-treated cells (n=3). (D) HCT116 cells were transfected with control KD, RXR-gamma-KD1, TIMP2-KD or TIMP3-KD siRNA on day 0. […] The number of cells that invaded the ECM was determined after 36 h. Data are expressed as percentage change in tumor invasion relative to that of DMSO-treated cells (n=3). (E) HCT116 cells were transfected with control-KD, TIMP2-KD or TIMP3-KD siRNA on day 0. […] Hepatic metastasis was analyzed by performing bioluminescence imaging on day 10.* P<0.05, ** P<0.005, *** P<0.0001.
Luciferase-expressing HCT116 and HT29 cells were generated by lentiviral transduction of the cells with a CMV promoter-driven luciferase expression construct engineered from the pLL3.7 vector. […] Bioluminescence imaging was performed in a Xenogen imaging system to monitor tumor growth and the data were analyzed using Living Image software (Caliper LifeSciences). […]

[9] = test system: MMP-1; experiment: MMP-1 activity in culture supernatant; type: cell-based, human; settings: culture supernatant from HT29 and CAL27 cells

With `CC(=O)S[C@@H]1CC2=CC(=O)CC[C@]2(C)[C@H]2CC[C@@]3(C)[C@@H](CC[C@@]34CCC(=O)O4)[C@H]12` [SPIR, spironolactone] the “amount of soluble ULBP2” value [1] was “did not reduce but rather moderately increased”, the “number of polyps (therapy)” value ([2]; 4-month-old mice, twice a week for 3 weeks, vs untreated) was “significant reduction of the number of polyps” and the “number of polyps formed (prevention)” value ([2]; 8-week-old mice, twice a week for 3 months, vs untreated) was “significantly less”. For the same compound, the “expression of Raet1 ligand in the polyps” value ([2]; qRT-PCR) was “significantly increased the expression of the Raet1 ligand”, the RXR-gamma-responsive luciferase activity ([3]; 24 h) was “significantly increased” and the RXR-gamma protein level ([3]; Western blot) was “did not change”. For the same compound, the cell cycle [4] was “S-phase cell-cycle arrest”, the “TIMP2 and TIMP3 in culture supernatant” value [5] was “corresponding increases” and the cell migration [6] was “delayed cell migration”. For the same compound, the lung metastasis [7] was “significant reduction of lung metastasis”, the hepatic tumor metastasis [8] was “significantly suppresses tumor metastasis” and the MMP-1 activity [9] was “decrease of MMP-1 activity”.
